Assay results published in patent publication US8912173B2, “Substituted quinolines and their use as medicaments” (Boehringer Ingelheim International GmbH, priority 2011, dated 2014).

System: patients with ITP
Assay: not given
Details: single center open label study; cited from earlier work

Compound	platelet counts
COc1cc(Nc2ncc(F)c(Nc3ccc4c(n3)N(COP(=O)(O)O)C(=O)C(C)(C)O4)n2)cc(OC)c1OC [Example R788]	improved platelet counts

Biological target: Recombinant human Syk (amino acids 342-635), GST-Syk kinase fusion protein (Homo sapiens (Human), UniProt P43405)
Assay: Syk Kinase Test (Kinase Glo Luminescence Kinase test)
Details: read-out: IC50-value (+0.2% BSA in μM); +0.2% BSA
Description: The catalytic activity of the GST-Syk kinase fusion protein was determined using the Kinase Glo® Luminescence Kinase test (Promega; V6712). In this homogeneous test the amount of ATP remaining after the kinase reaction is quantified by a luciferin-luciferase reaction using luminescence. The luminescence signal obtained correlates with the amount of ATP still present and thus correlates inversely with the activity of the protein kinase.
GST-Syk was diluted to 6.0 nM in the test buffer and 10 μl of this dilution were used in the kinase test (final concentration of Syk=4 nM in a total volume of 15 μl).
Positive controls are the reaction mixtures that contain no test substance; negative controls (blanks) are reaction mixtures that contain no kinase.
After 60 minutes, 10 μl Kinase-Glo® solution (Promega, Cat. #V6712) (heated to room temperature) were added to each well and incubation was continued for a further 15 minutes. The plates were read in a Microplate Scintillation and Luminescence Counter (Canberra Packard GmbH).
Data Evaluation and Calculation:
The output file of the “Counter” is a text file that contains the well number and measured counts in two columns. […] Based on this values the % inherent value for the measurement of each substance concentration was calculated using an “MS-Excel-VB macro”. […] The IC50 values were calculated from the % inhibition values using “GraphPadPrism” software (Version 5) (GraphPad Software Inc.).

IC50 [µM]	Compound
0.0017	C[C@@H](Oc1cc(-c2ccccn2)cc2ncccc12)[C@H]1CNC(=O)C1 [Example 6, (R)-4-((R)-1-(7-(pyridin-2-yl)quinolin-5-yloxy)ethyl)pyrrolidin-2-one]

Same assay, conditions: read-out: IC50-value (+0.2% HSA in μM); +0.2% HSA

Compound	IC50 [µM]
C[C@@H](Oc1cc(-c2ccc3c(c2)CNCC3)cc2ncccc12)[C@H]1CNC(=O)C1 [Example 101, (R)-4-((R)-1-(7-(1,2,3,4-tetrahydroisoquinolin-7-yl)quinolin-5-yloxy)ethyl)pyrrolidin-2-one]	0.0004
C[C@@H](Oc1cc(-c2ccc3c(c2)ncn3C)cc2ncccc12)[C@H]1CNC(=O)C1 [Example 94, (R)-4-((R)-1-(7-(1-methyl-1H-benzo[d]imidazol-5-yl)quinolin-5-yloxy)ethyl)pyrrolidin-2-one]	0.0003
Cc1nc2ccc(-c3cc(O[C@H](C)[C@H]4CNC(=O)C4)c4cccnc4c3)cc2s1 [Example 85, (R)-4-((R)-1-(7-(2-methylbenzo[d]thiazol-6-yl)quinolin-5-yloxy)ethyl)pyrrolidin-2-one]	0.0002

Next, values leading:

IC50 [µM]	Compound
0.0004	Cc1nc2cc(-c3cc(O[C@H](C)[C@H]4CNC(=O)C4)c4cccnc4c3)ccc2[nH]1 [Example 109, (R)-4-((R)-1-(7-(2-methyl-1H-benzo[d]imidazol-5-yl)quinolin-5-yloxy)ethyl)pyrrolidin-2-one]
0.0012	Cc1c(-c2cc(O[C@H](C)[C@H]3CNC(=O)C3)c3cccnc3c2)cnn1C [Example 112, (R)-4-((R)-1-(7-(1,5-dimethyl-1H-pyrazol-4-yl)quinolin-5-yloxy)ethyl)pyrrolidin-2-one]
0.0045	COc1cc(-c2cc(O[C@H](C)[C@H]3CNC(=O)C3)c3cccnc3c2)ccc1C(F)(F)F [Example 102, (R)-4-((R)-1-(7-(3-methoxy-4-(trifluoromethyl)phenyl)quinolin-5-yloxy)ethyl)pyrrolidin-2-one]
0.0002	Cc1nc2cc(-c3cc(O[C@H](C)[C@H]4CNC(=O)C4)c4cccnc4c3)ccc2n1C [Example 105, (R)-4-((R)-1-(7-(1,2-dimethyl-1H-benzo[d]imidazol-5-yl)quinolin-5-yloxy)ethyl)pyrrolidin-2-one]
